# Assay results from patent publication US20050069907A1, “Methods for using double-mutant RNA polymerases with reduced discrimination between non-canonical and canonical nucleoside triphosphates” (priority 2002, published 2005).
# Assays:
# Type in all cases: biochemical
# poly(dI)·poly(dC) = assay: Relative activity on poly(dI)·poly(dC)
# Procedure: (§1) Transcription reactions: Transcription reactions were carried out in 40 mM Tris-Cl pH 8.0, 15 mM MgCl2, and 5 mM DTT or 20 mM Manganese Citrate pH 8.0, 5 mM DTT at 37° C. Template, polymerase, and NTP concentrations were as indicated in the legends to the figures and tables. Relative activity determinations were made by taking 4 μl aliquots of reactions at 5, 10, and 20 minute time points and spotting on to DE81 filter paper. Unincorporated nucleotides were separated from incorporated nucleotides by washing the filter paper with 0.5 M KH2PO4 pH 7.0 and retained radioactive nucleotide was quantitated with a Molecular Dynamics phosphorimager. To evaluate rNTP/dNTP selectivity, reactions were run with 4 rNTPs and pT75 as template and α-P^32 rNTPs or α-P^32 dNTPs were used to label the transcripts. The relative rate of incorporation of an rNTP vs. its cognate dNTP was determined from the relative percentages of labeled rNTP vs. dNTP incorporated into DE81 retainable RNA at 5, 10, and 20 minute time points. Apparent miscoding frequencies were determined similarly, though in this instance the template was a single-stranded homopolymer and the reaction contained the complementary unlabeled rNTP, and complementary α-P^32 rNTP or one of the 3 non-complementary α-P^32 rNTPs. The relative percentages of labeled complementary vs. non-complementary rNTPs incorporated at 5, 10 and 20 minute time points gave an apparent miscoding rate. The rNTP/dNTP selectivity assay was used to test the following T7 RNAP mutants for effects on substrate discrimination: D537S, D537E, S539A, R5S1S, D552S, R627S, K631S, L637A, Y639S, Y639F, Y639A, G640A, F644A, G645A, Q649S, […], H811S, H811A, D812A, D812E, D812S, D812N, D879E+ΔF882+ΔA883, D879E+A881T+ΔA883, D879E+F884+A885, D879E+F882Y, D879E+ΔA883, D879E+F882W, D879E.
# DNA and RNA synthesis on homopolymeric templates: T7 RNAP will synthesize poly(rG) RNAs on poly(dC) templates (Bonner, et al., 1994; Ikeda and Richardson 1987). The activity of the W.T. and mutant polymerases were measured on poly(dI)-poly(dC) with rGTP, dGTP, dGTP+rGMP (see, Table III).
# Numbers give mean and range from 3 experiments. Templates were at 0.2 mg/ml, polymerases at 10^-8 M. Labeling NTPs were α-P^32 rGTP, α-P^32 dGTP, α-P^32 rATP, α-P^32 dATP, as appropriate. rNTPs or rNMPs at 0.5 mM; dNTPs at 1 mM.
# HindIII-cut pT75 = assay: Run-off transcription with 2′-OMe- or 2′-azido-NTPs on HindIII-cut pT75; details: for Reduction of run-off transcript synthesis: 2′-OMe-UTP; for Reduction of run-off transcript yields relative to 4 NTPs: 2′-azido-UTP
# Procedure: RNAPs were prepared as described (Brieba, L G, and Sousa, R. Biochemistry, 39: 919-923, 2000). Transcription reactions were carried out for 30 min. at room temperature in 40 mM Tris-Cl, pH 8.0, 6 mM MgCl2, 10 mM NaCl, 2 mM spermidine, with templates at 10^−7 M and RNAPs at 2×10^−7 M. All NTPs were used at 0.5 mM, and transcripts were labeled by inclusion of 1% v/v 800 Ci/mM […] in the reaction. Modified NTPs were from Trilink Biotechnologies. Reactions were stopped by addition of an equal volume of 90% formamide, 50 mM EDTA, 0.01% xylene cyanol, resolved by electrophoresis in 20% acrylamide, 1% bis-acrylamide, 1×TBE gels, and visualized on a Molecular Dynamics Phosphorimager.
# With the pPK5 template, UMP and CMP are not incorporated into the first 9 nt of RNA. Incorporation of non-canonical NMPs during synthesis of the first 9 nt of RNA is expected to cause greater reductions in run-off transcript synthesis because the RNA is readily released from the transcription complex during this initial phase of transcription. Therefore, if incorporation of a non-canonical NMP is slow, the RNA will usually dissociate before the NMP is incorporated. […] To see whether NMPs with bulky 2′-substituents could be incorporated during the initial phase of transcription a Hind-III linearized pT75 (Tabor, S. and Richardson, C. C., “A bacteriophage T7 RNA polymerase/promoter system for controlled exclusive expression of specific genes,” Proc. Natl. Acad. Sci. USA 82:1074-1078, 1985) was used. On this template, UMP is first incorporated at +14 while CMP is incorporated at +6 and +7. In reactions with 2′-OMe-UTP run-off transcript synthesis is reduced 11-fold, 5-fold, and <2-fold with the wild-type, and the Y639F, and Y639F/H784A mutants, respectively (FIG. 2c; lanes 2, 6, 10). However, in reactions with 2′-OMe-CTP run-off transcription is undetectable with the wild-type or Y639F enzymes (FIG. 2c; lanes 3, 4, 7, 8), and is reduced ˜700-fold with Y639F/H784A (FIG. 2c; lanes 11, 12).
# Run-off transcript yields in reactions with HindIII-cut pT75 and 2′-azido-UTP are reduced 18-, 8.5-, and <2-fold with wild-type and Y639F and Y639F/H784 mutants, respectively (FIG. 2d; lanes 2, 6, 10), relative to reactions with 4 NTPs (FIG. 2d; lanes 1, 5, 9). In reactions with 2′-azido-CTP, or both 2′-azido-CTP and 2′-azido-UTP, run-off transcription is undetectable with the wild-type enzyme (FIG. 2d; lanes 3, 4), is reduced 65-fold with Y639F (FIG. 2d; lanes 7, 8), but is reduced only 7-fold with Y639F/H784A (FIG. 2d; lanes 11, 12).
# poly(dT) = assay: Apparent miscoding on homopolymeric template poly(dT)
# Procedure: as §1
# An increase in miscoding would be reflected in an increase in the rate of incorporation of the non-complementary NTP into RNA.
# Numbers are averages from 2 experiments and reflect the ratio of the percentages of labeled rNTPs incorporated into RNA in reactions in which unlabeled complementary rNTPs were in great excess (0.5 mM) to labeled complementary or non-complementary rNTPs. Templates were at 0.1 mg/ml. Polymerases were at 10^−8 M in Mg^2+ buffer and 10^−7 M in Mn^2+ buffer.
# *The upper number refers to results obtained in Mg^2+ buffer, the lower number to results in Mn^2+ buffer. n.d.: G640A, Y639A, Y639S were poorly active in Mn^2+ buffer, or on poly(dT) under all conditions.
# [1] = rGTP, mean and range from 3 experiments
# [2] = 2′-azido-CTP, or both 2′-azido-CTP and 2′-azido-UTP
Substance,Relative activity on poly(dI)·poly(dC) (poly(dI)·poly(dC); dGTP),Relative activity on poly(dI)·poly(dC) (poly(dI)·poly(dC); dGTP + rGMP),Relative activity on poly(dI)·poly(dC) (poly(dI)·poly(dC); [1]),Reduction of run-off transcription (HindIII-cut pT75; 2′-OMe-CTP),Reduction of run-off transcript synthesis (HindIII-cut pT75),Reduction of run-off transcription (HindIII-cut pT75; [2]),Reduction of run-off transcript yields relative to 4 NTPs (HindIII-cut pT75),"Increase in miscoding rates in Mn^2+ buffer, on average (poly(dT))",Relative rate of incorporation ATP/CTP (poly(dT); Mg^2+ buffer),Relative rate of incorporation ATP/GTP (poly(dT); Mg^2+ buffer),Relative rate of incorporation ATP/UTP (poly(dT); Mg^2+ buffer),Relative rate of incorporation ATP/CTP (poly(dT); Mn^2+ buffer),Relative rate of incorporation ATP/GTP (poly(dT); Mn^2+ buffer),Relative rate of incorporation ATP/UTP (poly(dT); Mn^2+ buffer),"Increase, relative to W.T., in ratio of rates of rGTP to rATP incorporation (poly(dT))"
W.T.: wild-type T7 RNA polymerase [reference compound],7.4 (5.4-12.5),25 (20-27),1000,undetectable,11 fold,undetectable,18 fold,~5 fold,>340,170,121,77,50,21,
Y639F: T7 RNAP with wild-type tyrosine at position 639 substituted by phenylalanine,964 (684-1257),1070 (816-1457),1000,undetectable,5 fold,65 fold,8.5 fold,~5 fold,>94,94,94,60,27,20,~2 fold
